Laboratory results: patent US20220340564A1, “ANTIBACTERIAL COMPOUNDS” (Janssen Sciences Ireland Unlimited Company, priority 2019, published 2022)
Like-named read-outs stand apart in the source and are kept apart here.

Experiments:
[1] = GSH (GSH/CN) reactive metabolite measurement; format: in vitro ADME
Excerpt: (§1) The compounds of the invention/examples may have advantages associated with in vitro potency, kill kinetics (i.e. bactericidal effect) in vitro, PK properties, food effect, safety/toxicity (including liver toxicity, coagulation, […]), metabolic stability, Ames II negativity, MNT negativity, aqueous based solubility (and ability to formulate) and/or cardiovascular effect e.g. on animals (e.g. anesthetized guinea pig). The data below that was generated/calculated may be obtained using standard methods/assays, for instance that are available in the literature or which may be performed by a supplier (e.g. Microsomal Stability Assay—Cyprotex, Mitochondrial toxicity (Glu/Gal) assay —Cyprotex, as well as literature CYP cocktail inhibition assays). In some instances, GSH was measured (reactive metabolites, glucuronidation) to observe if a dihydrodiol is observed by LCMS (fragmentation ions), which would correspond to a dihydroxylation on the core heterocycle.

in vitro [2] = details: human, microsomes
Ca Ch = test: CVS panel, Ca channel
Excerpt: as §1

hERGdof = hERGdof (Homo sapiens, UniProt Q12809); test: CVS panel, hERGdof; format: binding
[3] = Mitochondrial toxicity (Glu/Gal) assay; format: cell-based
Excerpt: as §1

[4] = test system: Cyp-450 (cocktail, isoforms not named); test: Cocktail Cyp-450 inhibition; format: in vitro ADME; details: unit inferred; read-out: Cocktail Cyp-450, IC50
Excerpt: as §1

in vitro [5] = details: mouse, microsomes
[6] = test system: Mycobacterium tuberculosis strain EH4.0 expressing green-fluorescent protein (GFP); test: microbe, parasite or virus in culture; format: cell-based; details: 168 h, read-out: pIC50 (converted)
Na Ch = test: CVS panel, Na channel
[7] = Microsomal stability CLint (H); details: human, microsomes
[8] = Bioavailability in rodents
[9] = Microsomal stability CLint (M); details: mouse, microsomes
[10] = in vivo
hERG = hERG (Homo sapiens, UniProt Q12809); test: CVS panel, hERGdof; format: binding; details: human
CYP3A4 = CYP3A4 (Homo sapiens, UniProt P08684); test: Cocktail Cyp-450 inhibition, CYP3A4; format: in vitro ADME
CYP3A4, sequence (P08684 whole entry): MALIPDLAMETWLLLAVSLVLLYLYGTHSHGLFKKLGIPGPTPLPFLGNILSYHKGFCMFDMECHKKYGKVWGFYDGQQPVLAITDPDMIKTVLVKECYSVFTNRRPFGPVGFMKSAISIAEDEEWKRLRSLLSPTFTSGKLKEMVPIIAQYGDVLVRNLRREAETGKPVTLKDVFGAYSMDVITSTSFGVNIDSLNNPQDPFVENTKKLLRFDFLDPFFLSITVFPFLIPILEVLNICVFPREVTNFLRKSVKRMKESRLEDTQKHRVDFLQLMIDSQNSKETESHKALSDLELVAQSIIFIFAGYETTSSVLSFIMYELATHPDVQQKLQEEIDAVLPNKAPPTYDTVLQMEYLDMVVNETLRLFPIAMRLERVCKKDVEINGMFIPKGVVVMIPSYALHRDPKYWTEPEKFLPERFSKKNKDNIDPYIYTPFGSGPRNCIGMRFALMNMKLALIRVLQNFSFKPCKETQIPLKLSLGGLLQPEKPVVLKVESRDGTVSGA

hERGdof, sequence (Q12809 whole entry): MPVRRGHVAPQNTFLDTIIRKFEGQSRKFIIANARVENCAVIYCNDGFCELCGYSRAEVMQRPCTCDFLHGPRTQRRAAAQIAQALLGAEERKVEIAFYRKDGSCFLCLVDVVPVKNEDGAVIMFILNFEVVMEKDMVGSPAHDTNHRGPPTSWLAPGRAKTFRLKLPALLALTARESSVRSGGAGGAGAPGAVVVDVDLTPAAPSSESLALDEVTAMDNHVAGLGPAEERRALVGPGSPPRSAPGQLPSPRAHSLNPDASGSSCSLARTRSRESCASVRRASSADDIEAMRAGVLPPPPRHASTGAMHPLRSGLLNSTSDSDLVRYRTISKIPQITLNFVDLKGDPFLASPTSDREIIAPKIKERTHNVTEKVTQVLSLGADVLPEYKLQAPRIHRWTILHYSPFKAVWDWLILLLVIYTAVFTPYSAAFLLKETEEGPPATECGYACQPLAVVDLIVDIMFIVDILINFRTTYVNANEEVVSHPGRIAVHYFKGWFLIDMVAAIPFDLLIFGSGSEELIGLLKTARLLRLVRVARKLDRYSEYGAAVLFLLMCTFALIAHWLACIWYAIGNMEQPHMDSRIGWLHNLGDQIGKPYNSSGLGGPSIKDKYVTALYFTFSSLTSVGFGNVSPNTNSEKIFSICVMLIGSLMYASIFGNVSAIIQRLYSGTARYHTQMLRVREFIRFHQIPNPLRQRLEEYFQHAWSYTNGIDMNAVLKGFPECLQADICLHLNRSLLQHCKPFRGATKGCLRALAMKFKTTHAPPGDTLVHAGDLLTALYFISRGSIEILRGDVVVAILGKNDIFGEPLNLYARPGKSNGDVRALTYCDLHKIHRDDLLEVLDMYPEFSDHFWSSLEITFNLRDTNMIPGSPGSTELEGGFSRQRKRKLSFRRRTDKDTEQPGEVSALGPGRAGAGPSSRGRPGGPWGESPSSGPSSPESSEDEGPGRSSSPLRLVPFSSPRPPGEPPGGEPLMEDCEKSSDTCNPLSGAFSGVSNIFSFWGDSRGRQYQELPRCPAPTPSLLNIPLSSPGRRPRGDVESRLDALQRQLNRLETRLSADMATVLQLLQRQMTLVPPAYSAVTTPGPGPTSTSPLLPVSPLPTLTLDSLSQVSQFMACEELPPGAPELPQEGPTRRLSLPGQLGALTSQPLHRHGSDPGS
hERG, sequence (Q12809 whole entry): as above

Structure (SMILES): CCc1nc2ccc(Cl)cn2c1C(=O)NCc1ccc(N2CCN(S(=O)(=O)C(F)(F)F)C(OC)=N2)cc1 [Compound 6]
- GSH / reactive metabolites [1]: no measure of GSH
- microsomal CLint (in vitro [2]): 37.6 µL/min/mg
- IC50 (Ca Ch): > 10 µM
- IC50 (hERGdof; read-out: CVS hERGdof, IC50): > 10 µM
- Glu/Gal assay ratio (mitotoxicity) [3]: < 3
- IC50 [4]: > 20 µM
- microsomal CLint (in vitro [5]): 49 µL/min/mg
- IC50 [6]: 6.31 nM
- IC50 (Na Ch): > 10 µM

Structure (SMILES): CCc1nc2ccc(C#N)cn2c1C(=O)NCc1ccc(N2CCN(S(=O)(=O)C(F)(F)F)C(OC)=N2)c(F)c1 [Compound 73]
- GSH / reactive metabolites [1]: no measure of GSH
- microsomal CLint (in vitro [2]): 18 µL/min/mg
- IC50 (Ca Ch): > 10 µM
- IC50 (hERGdof; read-out: CVS hERGdof, IC50): > 10 µM
- IC50 [4]: > 20 µM
- microsomal CLint (in vitro [5]): 93 µL/min/mg
- IC50 [6]: 51.3 nM
- IC50 (Na Ch): > 10 µM

Structure (SMILES): CCc1nc2ccc(Cl)cn2c1C(=O)NCc1ccc(N2CCN(S(=O)(=O)C(F)(F)F)C=N2)cc1 [Compound 1]
- IC50 (Ca Ch): > 10 µM
- IC50 (hERGdof): > 10 µM
- microsomal CLint [7]: 29.6 µL/min/mg
- Glu/Gal assay ratio (mitotoxicity) [3]: < 3
- bioavailability (as shown in rodents) [8]: good bioavailaibility
- IC50 [4]: > 20 µM
- microsomal CLint [9]: 21.5 µL/min/mg
- IC50 [6]: 7.08 nM
- IC50 (Na Ch): > 10 µM

Structure (SMILES): O=C(NCc1ccc(N2CCN(S(=O)(=O)C(F)(F)F)C=N2)c(F)c1)c1c(C(F)(F)F)nc2ccccn12 [Compound 152]
- GSH / reactive metabolites [1]: formation of reactive metabolites was blocked
- bioavailability (as shown in rodents) [10]: good bioavailaibility
- Glu/Gal assay ratio (mitotoxicity) [3]: < 3
- IC50 [6]: 2 nM

Structure (SMILES): CCc1nc2ncc(Cl)cn2c1C(=O)NCc1ccc(N2CCN(S(=O)(=O)C(F)(F)F)C=N2)cc1 [Compound 13]
- IC50 (Ca Ch): > 10 µM
- IC50 (hERG): 7.4 µM
- microsomal CLint [7]: 16.3 µL/min/mg
- IC50 [4]: > 20 µM
- microsomal CLint [9]: 13.3 µL/min/mg
- IC50 [6]: 3.98 nM
- IC50 (Na Ch): > 10 µM

Structure (SMILES): CCc1nc2ccc(Cl)cn2c1C(=O)NCc1ccc(N2CCN(S(=O)(=O)C(F)(F)F)C=N2)c(F)c1 [Compound 9]
- IC50 (Ca Ch): > 10 µM
- IC50 (hERGdof; read-out: CVS hERGdof, IC50): > 10 µM
- microsomal CLint [7]: 19 µL/min/mg
- IC50 [4]: > 20 µM
- microsomal CLint [9]: 41 µL/min/mg
- IC50 [6]: 0.631 nM
- IC50 (Na Ch): > 10 µM

Structure (SMILES): CCc1nc2ccc(Cl)cn2c1C(=O)NCc1ccc(N2CCN(S(=O)(=O)C(F)(F)F)C=N2)cc1F [Compound 16]
- IC50 (Ca Ch): > 10 µM
- IC50 (hERGdof; read-out: CVS hERGdof, IC50): > 10 µM
- microsomal CLint [7]: 24 µL/min/mg
- IC50 [4]: > 20 µM
- microsomal CLint [9]: 18 µL/min/mg
- IC50 [6]: 6.31 nM
- IC50 (Na Ch): > 10 µM

Structure (SMILES): CCc1nc2ccc(Cl)cn2c1C(=O)NCc1ccc(N2CCN(S(C)(=O)=O)C=N2)cc1 [Compound 20]
- microsomal CLint (in vitro [2]): 56.6 µL/min/mg
- IC50 (Ca Ch): > 10 µM
- IC50 (hERGdof; read-out: CVS hERGdof, IC50): > 10 µM
- IC50 (CYP3A4): 13.2 µM
- IC50 [4]: > 20 µM
- microsomal CLint (in vitro [5]): 15.9 µL/min/mg
- IC50 [6]: 31.6 nM
- IC50 (Na Ch): > 10 µM

Structure (SMILES): CCc1nc2nc(N)c(Cl)cn2c1C(=O)NCc1ccc(N2CCN(S(=O)(=O)C(F)(F)F)C=N2)c(F)c1 [Compound 126]
- IC50 [6]: 9.77 nM

Structure (SMILES): Cc1ccc2nc(C(F)(F)F)c(C(=O)NCc3ccc(N4CCN(S(=O)(=O)C(F)(F)F)C=N4)c(F)c3)n2c1 [Compound 175]
- IC50 [6]: 1.58 nM

Structure (SMILES): O=C(NCc1ccc(N2CCN(S(=O)(=O)C(F)(F)F)C=N2)c(F)c1)c1c(C(F)(F)F)nc2ccc(Cl)cn12 [Compound 124]
- IC50 [6]: 10 nM

Structure (SMILES): CCc1nc2c(F)cc(C)cn2c1C(=O)NCc1ccc(N2CCNC=N2)c(F)c1 [Compound 198]
- IC50 [6]: 93.3 nM

Structure (SMILES): CCc1nc2cc(C)c(Cl)cn2c1C(=O)NCc1ccc(N2CCN(S(=O)(=O)C(F)(F)F)C(OC)=N2)c(F)c1 [Compound 132]
- IC50 [6]: 8.32 nM

Structure (SMILES): CCc1nc2ccc(Cl)cn2c1C(=O)NCc1cnc(N2CCN(S(=O)(=O)C(F)(F)F)C=N2)c(F)c1 [Compound 142]
- IC50 [6]: 4.68 nM

Structure (SMILES): O=C(NCc1ccc(N2CCN(S(=O)(=O)C(F)(F)F)C=N2)c(F)c1)c1c(Br)nc2n1CCC2 [Compound 99]
- IC50 [6]: 32.4 nM

Structure (SMILES): CCc1nc2nc(OCc3ccccc3)c(F)cn2c1C(=O)NCc1ccc(N2CCN(S(=O)(=O)C(F)(F)F)C=N2)c(F)c1 [Compound 189]
- IC50 [6]: ≥ 501 nM

Structure (SMILES): CCc1nc2n(c1C(=O)NCc1ccc(N3CCNC=N3)cc1)CCCC2 [Compound 57]
- IC50 [6]: ≥ 501 nM

Structure (SMILES): CCc1nc2c(Br)cc(C)cn2c1C(=O)NCc1ccc(N2CCN(S(=O)(=O)C(F)(F)F)C=N2)c(F)c1 [Compound 166]
- IC50 [6]: 245 nM

Structure (SMILES): CCc1nc2ncc(F)cn2c1C(=O)NCc1ccc(N2CCN(S(=O)(=O)C(F)(F)F)C=N2)cc1 [Compound 10]
- IC50 [6]: 63.1 nM

Structure (SMILES): CCc1nc2c(F)cc(C)cn2c1C(=O)NCc1cnc(N2CCNC=N2)c(F)c1 [Compound 187]
- IC50 [6]: ≥ 501 nM

Structure (SMILES): CCc1nc2ncc(C)cn2c1C(=O)NCc1ccc(N2CCN(S(=O)(=O)C(F)(F)F)C(OC)=N2)c(F)c1 [Compound 193]
- IC50 [6]: 0.891 nM

Structure (SMILES): CCc1nc2cc(C)c(Cl)cn2c1C(=O)NCc1ccc(N2CCN(S(=O)(=O)C(F)(F)F)C(OC)=N2)cc1 [Compound 108]
- IC50 [6]: 20.4 nM

Structure (SMILES): CCc1nc2c(Cl)cccn2c1C(=O)NCc1ccc(N2CCN(S(=O)(=O)C(F)(F)F)C=N2)c(F)c1 [Compound 129]
- IC50 [6]: 8.91 nM

Structure (SMILES): CCc1nc2sc(Cl)cn2c1C(=O)NCc1ccc(N2CCN(S(=O)(=O)C(F)(F)F)C=N2)c(F)c1 [Compound 135]
- IC50 [6]: 7.24 nM

Structure (SMILES): CCc1nc2ccc(Cl)cn2c1C(=O)NCc1ccc(N2CCN(S(=O)(=O)C(F)(F)F)C(CCOC)=N2)cc1 [Compound 55]
- IC50 [6]: 25.7 nM

Structure (SMILES): CCc1nc2ccc(Cl)cn2c1C(=O)NCc1ccc(N2CCN(S(=O)(=O)C(F)(F)F)C(CCO)=N2)cc1 [Compound 40]
- IC50 [6]: 63.1 nM

Structure (SMILES): O=C(NCc1ccc(N2CCNC=N2)c(F)c1)c1c(C(F)(F)F)nc2ccccn12 [Compound 192]
- IC50 [6]: > 500 nM

Structure (SMILES): CCc1nc2nc(C)c(C)cn2c1C(=O)NCc1ccc(N2CCN(S(=O)(=O)C(F)(F)F)C(OC)=N2)c(F)c1 [Compound 211]
- IC50 [6]: 2.29 nM

Structure (SMILES): CCc1nc2ccc(Cl)cn2c1C(=O)NCc1ccc(N2CCN(S(=O)(=O)C(F)(F)F)C=N2)cc1OC [Compound 22]
- IC50 [6]: 398 nM

Structure (SMILES): CCc1nc2ccc(C#N)cn2c1C(=O)NCc1ccc(N2CCN(S(=O)(=O)C(F)(F)F)C(OC)=N2)cc1 [Compound 71]
- IC50 [6]: 166 nM

Structure (SMILES): CCc1nc2nc(OC)ccn2c1C(=O)NCc1ccc(N2CCN(S(=O)(=O)C(F)(F)F)C=N2)c(F)c1 [Compound 115]
- IC50 [6]: 15.8 nM

Structure (SMILES): CCc1nc2ccc(Cl)cn2c1C(=O)NCc1ccc(N2CCN(S(=O)(=O)C(F)(F)F)C(C)=N2)c(F)c1 [Compound 213]
- IC50 [6]: 3.47 nM

Structure (SMILES): CCc1nc2ccc(C3CC3)cn2c1C(=O)NCc1ccc(N2CCN(S(=O)(=O)C(F)(F)F)C=N2)c(F)c1 [Compound 101]
- IC50 [6]: 29.5 nM

Structure (SMILES): CCc1nc2cc(OC)c(C)cn2c1C(=O)NCc1ccc(N2CCN(S(=O)(=O)C(F)(F)F)C=N2)c(F)c1 [Compound 106]
- IC50 [6]: 25.7 nM

Structure (SMILES): CCc1nc2cc3c(cn2c1C(=O)NCc1ccc(N2CCN(S(=O)(=O)C(F)(F)F)C=N2)c(F)c1)OCC3 [Compound 131]
- IC50 [6]: 8.71 nM
